Measured values from paper PMC10700596 (Nature Communications, 2023).
Several values for one entry are separate records, joined by “and”; a condition that tells them apart may be missing. Identical values can stand only once. Entries after “also recorded” stand apart in the source; their conditions may differ. Like-named read-outs stand apart in the source and are kept apart here.

Key:
Assay type in all cases: in vivo
mice [1] = system: mice
mice [2] = conditions: for Carrageenan-induced allodynia, mechanical threshold (von Frey): individual animals
mice [3] = system: mice; remark: listed apart in the source

O=C([O-])C1CCC2(CC1)CC(Nc1ncnc3[nH]c4c(F)cccc4c13)C2.[Na+] (stereo not drawn) [Compound 77, [Na+].[O-]C(=O)C1CCC2(CC(C2)NC=3N=CN=C4NC=5C(F)=CC=CC5C34)CC1]
effect on CFA-induced paw edema (mice [1]; 30 mg/kg i.p. daily on four consecutive days): significantly reduced the progression of CFA-induced inflammation; also recorded: significantly slowed the development of paw edema | reduction of paw thickness versus the control group (mice [1]; 30 mg/kg i.p. daily on four consecutive days after CFA): up to 20% | Thickness D1 %BL (mice [1]; 77 30 mg/kg, CFA day 1, 1 h after dosing, % of CFA D1 thickness, individual mice 6-10 and Average, 30 mg/kg): 92.0% and 93.2% and 87.6% and 98.7% and 95.8% | Thickness D1 (mice [1]; 77 30 mg/kg, CFA day 1, 1 h after dosing, individual mice 6-10 and Average, 30 mg/kg): 3.58 and 3.3 and 3.4 and 3.89 and 3.68 | Thickness D2 (1h) %BL (mice [1]; 77 30 mg/kg, CFA day 2, 1 h, % of CFA D1 thickness, individual mice 6-10 and Average, 30 mg/kg): 115.7% and 120.9% and 116.5% and 109.1% and 119.8% | Thickness D2 (1h) (mice [1]; 77 30 mg/kg, CFA day 2, 1 h, individual mice 6-10 and Average, 30 mg/kg): 4.5 and 4.28 and 4.52 and 4.3 and 4.6 | Thickness BL D2 (mice [1]; 77 30 mg/kg, CFA day 2 before that day's dose (vehicle head: CFA D2), individual mice 6-10 and Average, 30 mg/kg): 4.81 and 4.39 and 4.69 and 4.16 and 4.59 | Thickness BL D2 % (mice [1]; 77 30 mg/kg, CFA day 2 before that day's dose, % of CFA D1 thickness, individual mice 6-10 and Average, 30 mg/kg): 123.7% and 124.0% and 120.9% and 105.6% and 119.5% | Thickness D3 (1h) % (mice [1]; 77 30 mg/kg, CFA day 3, 1 h, % of CFA D1 thickness, individual mice 6-10 and Average, 30 mg/kg): 128.5% and 117.8% and 103.9% and 101.5% and 122.4% | Thickness D3 (1h) (mice [1]; 77 30 mg/kg, CFA day 3, 1 h, individual mice 6-10 and Average, 30 mg/kg): 5 and 4.17 and 4.03 and 4 and 4.7 | Thickness CFA D3 % (mice [1]; 77 30 mg/kg, CFA day 3 before that day's dose, % of CFA D1 thickness, individual mice 6-10 and Average, 30 mg/kg): 131.9% and 121.8% and 110.3% and 105.1% and 128.9% | Thickness CFA D3 (mice [1]; 77 30 mg/kg, CFA day 3 before that day's dose, individual mice 6-10 and Average, 30 mg/kg): 5.13 and 4.31 and 4.28 and 4.14 and 4.95 | Thickness D4 (1h) % (mice [1]; 77 30 mg/kg, CFA day 4, 1 h, % of CFA D1 thickness, individual mice 6-10 and Average, 30 mg/kg): 113.1% and 107.3% and 103.1% and 103.6% and 104.7% | Thickness D4 (1h) (mice [1]; 77 30 mg/kg, CFA day 4, 1 h, individual mice 6-10 and Average, 30 mg/kg): 4.4 and 3.8 and 4 and 4.08 and 4.02 | Thickness CFA D4 % (mice [1]; 77 30 mg/kg, CFA day 4 before that day's dose, % of CFA D1 thickness, individual mice 6-10 and Average, 30 mg/kg): 118.3% and 110.2% and 107.5% and 106.1% and 109.1% | Thickness CFA D4 (mice [1]; 77 30 mg/kg, CFA day 4 before that day's dose, individual mice 6-10 and Average, 30 mg/kg): 4.6 and 3.9 and 4.17 and 4.18 and 4.19 | Thickness CFA D5 % (mice [1]; 77 30 mg/kg, CFA day 5, % of CFA D1 thickness, individual mice 6-10 and Average, 30 mg/kg): 100.0% and 107.3% and 97.4% and 90.6% and 104.2% | Thickness CFA D5 (mice [1]; 77 30 mg/kg, CFA day 5, individual mice 6-10 and Average, 30 mg/kg): 3.89 and 3.8 and 3.78 and 3.57 and 4 | Thickness CFA D7 % (mice [1]; 77 30 mg/kg, CFA day 7, % of CFA D1 thickness, individual mice 6-10 and Average, 30 mg/kg): 102.8% and 96.0% and 90.2% and 86.0% and 106.8% | Thickness CFA D7 (mice [1]; 77 30 mg/kg, CFA day 7, individual mice 6-10 and Average, 30 mg/kg): 4 and 3.4 and 3.5 and 3.39 and 4.1 | Carrageenan-induced allodynia, mechanical threshold (von Frey) (mice [2]; 10 mg/kg IP): 27 and 58.1 and 18.1 and 18.3 and 32 and 31.3 and 24.3 and 20.9 and 32.5 and 40 | effect on carrageenan-mediated mechanical allodynia (mice [2]; 10 mg/kg i.p.): equal anti-allodynic effects; also recorded: equally reduce carrageenan-mediated mechanical allodynia | Carrageenan-induced allodynia, mechanical threshold (von Frey) (mice [2]; 30 mg/kg IP): 30.3 and 39.4 and 44.8 and 39.1 and 40.4 | Carrageenan-induced allodynia, mechanical threshold (von Frey) (mice [2]; 30 mg/kg PO): 45.8 and 24.2 and 57.3 and 32.3 and 42.9 and 24.5 and 10.4 and 51.4 and 11.4 and 35.4 | effect on carrageenan-mediated mechanical allodynia (mice [2]; 30 mg/kg i.p. or p.o.): significant anti-allodynic properties | PGE2-induced allodynia, mechanical threshold (von Frey) (mice [3]; 30 mg/kg IP, 30 min before 10 µg intraplantar PGE2, individual animals): 121.3 and 118.3 and 44.9 and 101.1 and 46.9 | effect on PGE2-induced mechanical hypersensitivity (mice [3]; mouse, in vivo): dose-dependently prevented mechanical hypersensitivity; also recorded: dose-dependently reduces mechanical allodynia
